This test concerns CD2F1 mice, L1210 leukemia ip, survival T/C. Put plainly: NCI In Vivo Anticancer Drug Screen. Data for tumor model L1210 Leukemia (intraperitoneal) in CD2F1 (CDF1) mice. The conditions noted are these: higher = longer survival. The method in brief: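 Antitumor effect is scored in animals hosting a serially transplanted tumor. Values compare compound-dosed animals against vehicle-only controls as a simple quotient.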

Where [1] appears, read: endpoint: mean survival time, dose: 100.0 mg/kg/injection, schedule: Q01DX009 (ip), vehicle: saline with Tween-80.
Where [2] appears, read: endpoint: mean survival time, dose: 100.0 mg/kg/injection, schedule: Q04DX003 (ip), vehicle: saline with Tween-80.
[3] abbreviates: endpoint: mean survival time, dose: 200.0 mg/kg/injection, schedule: Q01DX009 (ip), vehicle: saline with Tween-80.
The mark [4] stands for this setting: endpoint: mean survival time, dose: 200.0 mg/kg/injection, schedule: Q04DX003 (ip), vehicle: saline with Tween-80.
Setting [5] is: endpoint: mean survival time, dose: 400.0 mg/kg/injection, schedule: Q01DX009 (ip), vehicle: saline with Tween-80.
The mark [6] stands for this setting: endpoint: mean survival time, dose: 400.0 mg/kg/injection, schedule: Q04DX003 (ip), vehicle: saline with Tween-80.
Setting [7] is: endpoint: mean survival time, dose: 25.0 mg/kg/injection, schedule: Q01DX009 (ip), vehicle: saline with Tween-80.
[8] abbreviates: endpoint: mean survival time, dose: 50.0 mg/kg/injection, schedule: Q01DX009 (ip), vehicle: saline with Tween-80.
Setting [9] is: endpoint: mean survival time, dose: 100.0 mg/kg/injection, schedule: Q04DX002 (ip), vehicle: saline with Tween-80.
[10] abbreviates: endpoint: mean survival time, dose: 400.0 mg/kg/injection, schedule: Q04DX002 (ip), vehicle: saline with Tween-80.
Setting [11] is: endpoint: mean survival time, dose: 100.0 mg/kg/injection, schedule: Q01DX001 (ip), vehicle: saline with Tween-80.
Setting [12] is: endpoint: mean survival time, dose: 200.0 mg/kg/injection, schedule: Q01DX001 (ip), vehicle: saline with Tween-80.
Setting [13] is: endpoint: mean survival time, dose: 400.0 mg/kg/injection, schedule: Q01DX001 (ip), vehicle: saline with Tween-80.

Where “and” joins values, the source holds several entries; their conditions need not be identical. Equal entries are not always repeated. Toxic doses and inconclusive results are not listed.

`O=[N+]([O-])c1ccc(N/N=C/c2ccnc3ccccc23)cc1`: the T/C by setting is: (endpoint: mean survival time, dose: 100.0 mg/kg/injection, schedule: Q04DX003 (ip), vehicle: Klucel (hydroxypropylcellulose) (HPC)) 89 % of control; (endpoint: mean survival time, dose: 200.0 mg/kg/injection, schedule: Q04DX003 (ip), vehicle: Klucel (hydroxypropylcellulose) (HPC)) 91 % of control; (endpoint: mean survival time, dose: 400.0 mg/kg/injection, schedule: Q04DX003 (ip), vehicle: Klucel (hydroxypropylcellulose) (HPC)) 97 % of control.

As for `CCCCCCCCCCCCn1cnc2c(Cl)ncnc21`, the T/C by setting is: (endpoint: mean survival time, dose: 12.5 mg/kg/injection, schedule: Q01DX005 (ip), vehicle: other) 102 % of control; (endpoint: mean survival time, dose: 25.0 mg/kg/injection, schedule: Q01DX005 (ip), vehicle: other) 96 % of control; (endpoint: mean survival time, dose: 50.0 mg/kg/injection, schedule: Q01DX005 (ip), vehicle: other) 100 % of control; (endpoint: mean survival time, dose: 100.0 mg/kg/injection, schedule: Q01DX005 (ip), vehicle: other) 94 % of control; (endpoint: mean survival time, dose: 200.0 mg/kg/injection, schedule: Q01DX005 (ip), vehicle: other) 100 % of control.

With `CC(C(=O)c1ccccc1)=C(C(F)(F)F)C(F)(F)F`, the T/C runs as follows: under setting [1], 98 % of control; under setting [2], 91 % of control; under setting [3], 97 % of control; under setting [4], 97 % of control; under setting [5], 103 % of control; under setting [6], 100 % of control.

For the molecule `CCOC(=O)/C(=C\c1ccccc1Cl)C(C)=O`, the T/C (endpoint: mean survival time, dose: 25.0 mg/kg/injection, schedule: Q04DX003 (ip), vehicle: saline with Tween-80) is 103 % of control; the T/C (endpoint: mean survival time, dose: 50.0 mg/kg/injection, schedule: Q04DX003 (ip), vehicle: saline with Tween-80) is 96 % of control; the T/C under setting [1] was 103 % of control; the T/C under setting [2] was 96 % of control; the T/C under setting [3] was 108 % of control; the T/C under setting [4] was 107 % of control. Moreover, under setting [5], the T/C is 87 % of control.

As for `CC(=O)Nc1ccccc1N`, the T/C is 100 % of control (endpoint: mean survival time, dose: 50.0 mg/kg/injection, schedule: Q01DX009 (ip), vehicle: Klucel (hydroxypropylcellulose) (HPC)); 94 % of control (endpoint: mean survival time, dose: 100.0 mg/kg/injection, schedule: Q01DX009 (ip), vehicle: Klucel (hydroxypropylcellulose) (HPC)); 103 % of control (endpoint: mean survival time, dose: 200.0 mg/kg/injection, schedule: Q01DX009 (ip), vehicle: Klucel (hydroxypropylcellulose) (HPC)); 107 % of control (endpoint: mean survival time, dose: 400.0 mg/kg/injection, schedule: Q01DX009 (ip), vehicle: Klucel (hydroxypropylcellulose) (HPC)).

As to `Cc1c(Cl)c(Cl)c(Cl)c(Cl)c1Cl`, the T/C by setting is: under setting [1], 93 % of control; under setting [3], 93 % of control; under setting [5], 92 % of control.

With `c1ccc2c(c1)[nH]c1ccncc12`, the T/C was 98 % of control under setting [7], 90 % of control under setting [8] and 87 % of control under setting [1].

On to `Nc1ccn(C2CC(N)C(CO)O2)c(=O)n1` (configuration not stated), for which the T/C was 150 % of control (endpoint: median survival time, dose: 5.0 mg/kg/injection, schedule: Q06HX018 (ip), vehicle: water); 154 % of control and 162 % of control (endpoint: median survival time, dose: 10.0 mg/kg/injection, schedule: Q06HX018 (ip), vehicle: water); 198 % of control and 200 % of control (endpoint: median survival time, dose: 20.0 mg/kg/injection, schedule: Q06HX018 (ip), vehicle: water); 152 % of control and 174 % of control (endpoint: median survival time, dose: 40.0 mg/kg/injection, schedule: Q06HX018 (ip), vehicle: water).

For the molecule `COc1cc2c(cc1O)C(O)CNC2` (configuration not stated), the T/C reads like this: (endpoint: mean survival time, dose: 100.0 mg/kg/injection, schedule: Q01DX001 (ip), vehicle: saline) 104 % of control; (endpoint: mean survival time, dose: 200.0 mg/kg/injection, schedule: Q01DX001 (ip), vehicle: saline) 93 % of control; (endpoint: mean survival time, dose: 400.0 mg/kg/injection, schedule: Q01DX001 (ip), vehicle: saline) 98 % of control.

Turning to `COC(=O)C1C2CC(C(Br)C2Br)C1C(=O)O` (configuration not stated), the T/C under setting [1] is 96 % of control; the T/C under setting [2] was 96 % of control; the T/C under setting [3] was 98 % of control; the T/C under setting [4] is 96 % of control and 94 % of control; the T/C under setting [5] is 97 % of control; the T/C under setting [6] was 88 % of control and 98 % of control.

Consider `CC(=O)N(Cc1ccncc1)N=O`, for which the T/C was 110 % of control (endpoint: mean survival time, dose: 75.0 mg/kg/injection, schedule: Q01DX001 (ip), vehicle: water); 114 % of control (endpoint: mean survival time, dose: 150.0 mg/kg/injection, schedule: Q01DX001 (ip), vehicle: water); 116 % of control (endpoint: mean survival time, dose: 300.0 mg/kg/injection, schedule: Q01DX001 (ip), vehicle: water).

Consider `CCCOC(=O)COc1ccc(F)cc1F`, for which the T/C is, setting by setting: (endpoint: mean survival time, dose: 25.0 mg/kg/injection, schedule: Q04DX002 (ip), vehicle: saline with Tween-80) 103 % of control; (endpoint: mean survival time, dose: 50.0 mg/kg/injection, schedule: Q04DX002 (ip), vehicle: saline with Tween-80) 100 % of control; under setting [9], 92 % of control and 95 % of control; under setting [10], 95 % of control.

As to `CC(C)CCCC(C)C1CCC2C3=CCC4CC(OC(=O)CCC(C)C)CCC4(C)C3CCC21C` (configuration not stated), the T/C reads like this: under setting [2], 101 % of control; under setting [4], 96 % of control; under setting [6], 104 % of control.

Consider `CCSC1=NCCCS1`, for which the T/C reads like this: (endpoint: mean survival time, dose: 75.0 mg/kg/injection, schedule: Q01DX001 (ip), vehicle: other) 97 % of control; (endpoint: mean survival time, dose: 150.0 mg/kg/injection, schedule: Q01DX001 (ip), vehicle: other) 98 % of control; (endpoint: mean survival time, dose: 300.0 mg/kg/injection, schedule: Q01DX001 (ip), vehicle: other) 95 % of control.

As for `Nc1nc(/C=C/c2ccc([N+](=O)[O-])cc2)c(-c2ccc(Cl)c(Cl)c2)c(=O)[nH]1`, the T/C is 92 % of control under setting [11], 89 % of control under setting [12] and 90 % of control under setting [13].

Consider `OC1CCCCC(O)CCCC1` (configuration not stated), for which the T/C by setting is: under setting [11], 110 % of control; under setting [9], 95 % of control; under setting [12], 116 % of control; (endpoint: mean survival time, dose: 200.0 mg/kg/injection, schedule: Q04DX002 (ip), vehicle: saline with Tween-80) 98 % of control; under setting [13], 118 % of control; under setting [10], 101 % of control.

Consider `CC(C)OC(=O)Nc1ccc(F)c(C(F)(F)F)c1`, for which the T/C reads like this: under setting [2], 96 % of control; under setting [4], 96 % of control; under setting [6], 94 % of control.

As for `CCOc1ccncc1[N+](=O)[O-]`, the T/C runs as follows: (endpoint: mean survival time, dose: 100.0 mg/kg/injection, schedule: Q01DX009 (ip), vehicle: saline sonified) 96 % of control; (endpoint: mean survival time, dose: 100.0 mg/kg/injection, schedule: Q04DX003 (ip), vehicle: saline sonified) 95 % of control; (endpoint: mean survival time, dose: 200.0 mg/kg/injection, schedule: Q04DX003 (ip), vehicle: saline sonified) 95 % of control; (endpoint: mean survival time, dose: 400.0 mg/kg/injection, schedule: Q04DX003 (ip), vehicle: saline sonified) 86 % of control.

With `CN(C)CCCc1c2ccccc2nc2ccc(Cl)cc12`, the T/C (endpoint: mean survival time, dose: 12.0 mg/kg/injection, schedule: Q04DX003 (ip), vehicle: saline) is 102 % of control; the T/C (endpoint: mean survival time, dose: 25.0 mg/kg/injection, schedule: Q04DX003 (ip), vehicle: saline) is 94 % of control; the T/C (endpoint: mean survival time, dose: 50.0 mg/kg/injection, schedule: Q04DX003 (ip), vehicle: saline) was 98 % of control.

With `Cc1ccc(NC(=O)Nc2ccccc2C(F)(F)F)cc1NC(=O)Nc1ccccc1C(F)(F)F`, the T/C was 96 % of control under setting [2], 98 % of control under setting [4] and 104 % of control under setting [6].

As to `O=C(Nc1ccc(O)cc1)c1c(O)[nH]c(=S)[nH]c1=O`, the T/C (endpoint: median survival time, dose: 12.5 mg/kg/injection, schedule: Q01DX009 (ip), vehicle: saline with Tween-80) was 107 % of control; the T/C (endpoint: median survival time, dose: 25.0 mg/kg/injection, schedule: Q01DX009 (ip), vehicle: saline with Tween-80) is 106 % of control; the T/C (endpoint: median survival time, dose: 50.0 mg/kg/injection, schedule: Q01DX009 (ip), vehicle: saline with Tween-80) is 106 % of control; the T/C (endpoint: median survival time, dose: 100.0 mg/kg/injection, schedule: Q01DX009 (ip), vehicle: saline with Tween-80) was 100 % of control.

On to `CCCCN1C(=O)C(=O)N(c2cc(Cl)c(OC)cc2OC)C1=O`, for which the T/C is 103 % of control (endpoint: mean survival time, dose: 12.5 mg/kg/injection, schedule: Q01DX009 (ip), vehicle: saline with Tween-80); 88 % of control under setting [7]; 93 % of control and 96 % of control under setting [8].

As to `O=S(=O)(OCCCCCCOS(=O)(=O)c1cccnc1)c1cccnc1`, the T/C (endpoint: mean survival time, dose: 10.0 mg/kg/injection, schedule: Q04DX002 (ip), vehicle: saline with Tween-80) was 107 % of control.

For the origin of these results see PubChem BioAssay AID256 (DTP/NCI, 2004).
